Reference: patent publication US9375395B2, “Compositions comprising an NFκB-inhibitor and a tropoelastin promoter” (JOHNSON & JOHNSON CONSUMER INC., priority 2009, dated 2016)

How the values were obtained:
[1] = tested on: NFκB; test: NFκB-INHIBITION TEST (NF-kB gene reporter luciferase, TNFα-stimulated FB293 cells); format: cell-based, human
Description: The NFκB-INHIBITION TEST is conducted in the following manner. FB293 cells, a stable transfected human epithelial cell line containing the gene reporter for NF-kB are used. They may be obtained from, e.g., Panomics (Fremont, Calif.). FB293 are plated at a density of 5×10^4 cells/mL in a suitable medium, e.g., Dulbecco's modified Eagle's medium (DMEM) supplemented with 10% fetal bovine serum (Invitrogen, San Diego, Calif.). The FB293 cells are stimulated with 100 ng/mL of Tumor Necrosis Factor-α (TNFα, available from Sigma-Aldrich of St Louis, Mo.) in the presence of the test sample. Separately, a control sample is tested wherein no test sample is applied. Following a 24-hour incubation at 37° C. with 5% CO2, cells are lysed with 40 μl of reporter lysis buffer (Promega, Madison, Wis.). A 20-μl aliquot of the lysate is assayed using a luciferase assay kit (Promega) and counted for 10 s in a Lmax luminometer (Molecular Devices, Sunnyvale, Calif.) with the data represented as the relative light unit/second. Percent NFκB Inhibition of the test sample is calculated as: NFκB Inhibition=[1−(Lsample/Lcontrol)]*100 where Lsample is the luminescence of the sample and Lcontrol is the luminescence of the control.
The NFκB-INHIBITION TEST described above was performed on test samples of Bay 11-7082 (Sigma-Aldrich, St. Louis, Mo.), Tetrahydrocurcuminoids CG (Sabinsa Corporation, Piscataway, N.J.), as well as various concentrations of 4-hexylresorcinol. The results are shown in Table 1, in which NF-kB Gene Reporter Activation (Luminescence, L) is reported for the test samples and a control sample. Percent NF-kB Inhibition is also reported.
The NFκB-INHIBITION TEST described above was performed on a series of substituted resorcinols each having a concentration of 10 ug/ml.

[2] = tested on: elastin promoter; test: TROPOELASTIN PROMOTER ASSAY (elastin promoter-luciferase reporter in H9C2 cells); format: cell-based, rat; details: 0.1 ug/ml on active basis; for Percent Change Over Vehicle: 24 h (Table 3)
Description: Suitable tropoelastin promoters may be determined, for example, using the TROPOELASTIN PROMOTER ASSAY. The TROPOELASTIN PROMOTER ASSAY is performed as follows. Rat cardiac myoblasts H9C2 (which may be purchased, for example from ATCC of Manassas, Va.) are used. Cultures are maintained in Dulbecco's modified Eagle's medium (DMEM, Invitrogen Life Technologies, Carlsbad, Calif.) supplemented with 10% fetal bovine serum, 2 mM glutamine, 100 units/ml penicillin, and 50 ug/ml streptomycin (Invitrogen Life Technologies, Carlsbad, Calif.). Cell cultures are transiently transfected with the elastin promoter-luciferase reporter construct (Elp2.2, a 2.2 kb elastin promoter fragment from nt −2267 to nt +2, driving the firefly luciferase gene, which may be obtained from Promega, Madison Wis.). DNA is prepared by Qiagen Maxi columns (Qiagen Valencia, Calif.). In all transfections, a construct with the thymidine kinase promoter and the Renilla luciferase reporter gene (pRL-TK, Promega, Madison Wis.) is included as an internal control. Typically, cells grown in 48-well plates are transfected with 0.45 ug total DNA per well using Lipofectamine 2000 (Invitrogen Life Technologies, Carlsbad, Calif.). One day after transfection, cells are treated with agents at indicated concentrations for approximately 24 hours before they are lysed for luciferase assays, using Dual-Luciferase Reporter System from Promega (Madison, Wis.), following manufacturer's protocol. The firefly luciferase activity is measured first (representing elastin promoter activity), followed by the renilla luciferase (internal control), using luminometer LMAX, from Molecular Devices (Sunnyvale, Calif.). The ratio of these two luciferase activities (RLU) is used to evaluate the Tropoelastin Promoter Activity. […]

[3] = 10 ug/ml, series of substituted resorcinols (Table 2)

SMILES: CCCCCCc1ccc(O)cc1O [4-Hexylresorcinol]
- Percent NF-kB Inhibition ([1]; 1 ug/ml, TNFα 100 ng/ml stimulated FB293 cells, 24 h): 1.9%
- Percent NF-kB Inhibition ([1]; 5 ug/ml, TNFα 100 ng/ml stimulated FB293 cells, 24 h): 50.9%
- Percent NF-kB Inhibition ([1]; 10 ug/ml, TNFα 100 ng/ml stimulated FB293 cells, 24 h (Table 1)): 72.9%
- Percent NF-kB Inhibition [1, 3]: 92.4%
- Percent NF-kB Inhibition ([1]; 50 ug/ml, TNFα 100 ng/ml stimulated FB293 cells, 24 h): 91.4%
- Percent Change Over Vehicle [2]: −12%
- Percent Change Over Vehicle ([2]; listed as 4-hexylresorcinol): −12%
- Tropoelastin Promoter Activity ([2]; 24 h, vehicle 1.36 ± 0.33 (Table 3)): 1.2 ± 0.12

SMILES: CC1CCCC(O)CCCCCc2cc(O)cc(O)c2C(=O)O1 (stereo not drawn) [β-Zearalanol]
- Percent NF-kB Inhibition [1, 3]: 76.56%

SMILES: CC1CCCC(=O)CCCCCc2cc(O)cc(O)c2C(=O)O1 (stereo not drawn) [Zearalanone]
- Percent NF-kB Inhibition [1, 3]: 50.95%

SMILES: C[C@H]1CCC[C@@H](O)CCC/C=C/c2cc(O)cc(O)c2C(=O)O1 [β-Zearalenol]
- Percent NF-kB Inhibition [1, 3]: 87.1%

SMILES: CCCCCCCCCCCC1c2cc(c(O)cc2O)C(CCCCCCCCCCC)c2cc(c(O)cc2O)C(CCCCCCCCCCC)c2cc(c(O)cc2O)C(CCCCCCCCCCC)c2cc1c(O)cc2O (stereo not drawn) [C-Undecylcalix[4]-resorcinarene, C-Undecylcalix[4]-resorcinarene]
- Percent NF-kB Inhibition [1, 3]: 4.87%
